{"source": "patent US11234970B2", "about": "“Parasitic pest control agents comprising pyridone compounds as active ingredients and methods for using the same” (MITSUI CHEMICALS AGRO, INC., priority 2017, dated 2022)", "system": "heartworm microfillaria", "assay": "Heartworm microfillaria mortality test (Test Example 1)", "format": "in vitro", "conditions": "final concentration 100 μg/ml in culture broth; after culturing for 7 days; microfillaria collected from infected dogs", "experimental": "Compound Nos. 32, 53, 54 and 55 were each dissolved in dimethyl sulfoxide to 10 mg/ml. These dimethyl sulfoxide solutions were diluted 100-fold to a final concentration of 100 μg/ml with the culture broth containing heartworm microfillaria collected from dogs infected with heartworm. The mortality rate of heartworm microfillaria was investigated after culturing for 7 days.\nAs a result, the mortality rate was 100% in each of the treatment groups.", "data": [{"smiles": "CCn1c(-c2c(F)cccc2F)c(-c2cc(OC)cc(OC)c2Cl)ccc1=O", "note": "[Compound 32]", "values": [{"measurement": "mortality rate of heartworm microfillaria", "result": 100, "unit": "%"}]}, {"smiles": "CCn1c(-c2c(F)cccc2F)c(-c2cc(OC)ccc2Cl)ccc1=O", "note": "[Compound 53, 5-(2-chloro-5-methoxyphenyl)-6-(2,6-difluorophenyl)-1-ethylpyridine-2(1H)-one]", "values": [{"measurement": "mortality rate of heartworm microfillaria", "result": 100, "unit": "%"}]}, {"smiles": "CCn1c(-c2c(F)cccc2F)c(-c2cc(OC)ccc2Cl)cc(Cl)c1=O", "note": "[Compound 54, 3-chloro-5-(2-chloro-5-methoxyphenyl)-6-(2,6-difluorophenyl)-1-ethylpyridine-2(1H)-one]", "values": [{"measurement": "mortality rate of heartworm microfillaria", "result": 100, "unit": "%"}]}, {"smiles": "CCn1c(-c2c(F)cccc2F)c(-c2cc(OC)ccc2Cl)cc(Br)c1=O", "note": "[Compound 55]", "values": [{"measurement": "mortality rate of heartworm microfillaria", "result": 100, "unit": "%"}]}]}
